Measurements: US6818203B2, “Use of perfluoroalkyl-containing metal complexes as contrast media in MR-imaging for visualization of plaque, tumors and necroses” (Schering Aktiengesellschaft, priority 2000, dated 2004)

Key:
[1] = hydrodynamic micelle diameter (2 Rh) by photon correlation spectroscopy (PCS); type: physicochemical
In short: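 Aggregate size measured as hydrodynamic diameter (2 Rh) of the amphiphilic compounds in solution by photon correlation spectroscopy.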

myocardial infarction = assay: infarction visualization (MRT) after intravenous administration in rats with acutely induced myocardial infarction; type: in vivo; conditions: 6 hours after i.v. 100 μmol of Gd/kg
From the text: The successful induction of an acute myocardial infarction was confirmed by means of NBT-staining.

iliac lymph nodes = assay: lymph node visualization (MRT) after intravenous administration in VX2-tumor-bearing rabbits; type: in vivo; conditions: 200 μmol of Gd/kg i.v.
Method: The pictures of FIG. 6 show MR images of an iliac lymph node and of a primary tumor (VX2-tumor implanted i.m.) precontrast, 60 minutes and 20 hours after intravenous administration of 100 μmol of Gd/kg of body weight of metal complex I in rabbits. […] The enhancement in the healthy lymph node tissue was 382% at the time of 15 minutes p.i. and 419% at the time of 60 minutes p.i. […] The ratio of signal intensities of healthy lymph node tissue to metastasis was 3.0 at the time of 15 minutes p.i. and 3.4 at the time of 60 minutes p.i. […] The enhancement in the healthy lymph node tissue was 246% at the time of 15 minutes p.i. and 282% at the time of 60 minutes p.i. […] The ratio of signal intensities of healthy lymph node tissue to metastasis was 2.5 at the time of 15 minutes p.i. and 1.7 at the time of 60 minutes p.i. […] The enhancement in the healthy lymph node tissue was 297% at the time of 10 minutes p.i. and 269% at the time of 60 minutes p.i. […] The ratio of signal intensities of healthy lymph node tissue to metastasis was 5.1 at the time of 10 minutes p.i. and 1.9 at the time of 60 minutes p.i. […] The enhancement in the healthy lymph node tissue was 195% at the time of 15 minutes p.i. and 233% at the time of 60 minutes p.i. […] The ratio of signal intensities of healthy lymph node tissue to metastasis was 1.9 at the time of 15 minutes p.i. and 1.8 at the time of 60 minutes p.i.

[2] = organ distribution (including lymph node concentration) after intravenous administration in rats; type: in vivo; conditions: 24 hours after administration, 100 μmol Gd/kg i.v.
Method: (§1) After intravenous administration of 100 μmol of total gadolinium/kg of body weight of a polar Gd-chelate with perfluorinated side chains (metal complex X) in rats, the metal content in various organs as well as in the lymph nodes (pooled as mesenteric and peripheral lymph nodes) was determined 24 hours after administration (MW, n=2).
as §1, with “200” for “100”, “V)” for “X)”
as §1, with “200” for “100”, “III)” for “X)”

[3] = critical micelle formation concentration (CMC) by tensiometry; type: physicochemical
In short: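 Surface tension of aqueous solutions was measured by tensiometry across a range of compound concentrations. CMC (mol/l) was calculated from the resulting surface-tension-versus-concentration plot.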

[4] = proton relaxivity in plasma (R^1), Minispec P 20; type: physicochemical; conditions: 40° C., 0.47 tesla, bovine plasma
In short: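 Measured at 40° C. and 0.47 tesla in bovine plasma, with contrast medium at 0.30–1.16 mmol/l. T1 obtained by inversion recovery (180°-TI-90°) over eight measuring points per sequence; relaxivity given in l/mmol·s.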

- 2 Rh (hydrodynamic micelle diameter) [1]: 5.4 nm
- metal content ([2]; Blood): 1 μmol Gd/L
- metal content, % Dose ([2]; Blood): 0.01 % Dose
- metal content ([2]; Brain): 1 μmol Gd/L
- metal content, % Dose ([2]; Brain): 0.01 % Dose
- metal content ([2]; Carcass): 192 μmol Gd/L
- metal content, % Dose ([2]; Carcass): 34.01 % Dose
- metal content ([2]; Femur): 3 μmol Gd/L
- metal content, % Dose ([2]; Femur): 0.01 % Dose
- metal content ([2]; Heart): 3 μmol Gd/L
- metal content, % Dose ([2]; Heart): 0.01 % Dose
- metal content ([2]; Intestine): 65 μmol Gd/L
- metal content, % Dose ([2]; Intestine): 1.22 % Dose
- metal content ([2]; Kidneys): 150 μmol Gd/L
- metal content, % Dose ([2]; Kidneys): 0.65 % Dose
- metal content ([2]; Liver): 104 μmol Gd/L
- metal content, % Dose ([2]; Liver): 2.34 % Dose
- metal content ([2]; Lung): 18 μmol Gd/L
- metal content, % Dose ([2]; Lung): 0.05 % Dose
- metal content ([2]; Mesenteric lymph nodes): 19 μmol Gd/L
- metal content, % Dose ([2]; Mesenteric lymph nodes): 0.01 % Dose
- metal content ([2]; Muscle): 1 μmol Gd/L
- metal content, % Dose ([2]; Muscle): 0.00 % Dose
- metal content ([2]; Pancreas): 6 μmol Gd/L
- metal content, % Dose ([2]; Pancreas): 0.02 % Dose
- metal content ([2]; Peripheral lymph nodes): 11 μmol Gd/L
- metal content, % Dose ([2]; Peripheral lymph nodes): 0.01 % Dose
- metal content ([2]; Spleen): 54 μmol Gd/L
- metal content, % Dose ([2]; Spleen): 0.07 % Dose
- metal content ([2]; Stomach): 49 μmol Gd/L
- metal content, % Dose ([2]; Stomach): 0.18 % Dose
- metal content, % Dose ([2]; Total): 38.58 % Dose
- CMC (critical micelle formation concentration) [3]: 7.9e-06 mol/L
- R^1 Plasma (relaxivity) [4]: 25.7 mmol⁻¹ s⁻¹
SMILES: COCCN(CCOCCC(F)(F)C(F)(F)C(F)(F)C(F)(F)C(F)(F)C(F)(F)C(F)(F)C(F)(F)F)C(=O)CNC(=O)C(C)N1CCN(CC(=O)[O-])CCN(CC(=O)[O-])CCN(CC(=O)[O-])CC1.[Gd+3] (centres unmarked) [metal complex X]
- signal in the infarction area (T1-weighted spin-echo images) (myocardial infarction): strong signal rise
- signal in healthy lymph node tissue (T1-weighted gradient-echo images) (iliac lymph nodes): strong signal rise
- enhancement in the healthy lymph node tissue (iliac lymph nodes; 15 minutes p.i.): 382%
- ratio of signal intensities of healthy lymph node tissue to metastasis (iliac lymph nodes; 15 minutes p.i.): 3.0
- enhancement in the healthy lymph node tissue (iliac lymph nodes; 60 minutes p.i.): 419%
- ratio of signal intensities of healthy lymph node tissue to metastasis (iliac lymph nodes; 60 minutes p.i.): 3.4
- signal in zones within the lymph node diagnosed as metastases (confirmed histologically) (iliac lymph nodes; early images): without signal rise
